doi:10.1101/2023.03.24.534094v2 (biorxiv, 2023)
Read-outs that look alike come from different tables or passages of the source.

Key:
Assay in all cases: biochemical
[1] = target: T1, BMPR2 (Homo sapiens, UniProt Q13873)
T1 sequence (Q13873 1-1038): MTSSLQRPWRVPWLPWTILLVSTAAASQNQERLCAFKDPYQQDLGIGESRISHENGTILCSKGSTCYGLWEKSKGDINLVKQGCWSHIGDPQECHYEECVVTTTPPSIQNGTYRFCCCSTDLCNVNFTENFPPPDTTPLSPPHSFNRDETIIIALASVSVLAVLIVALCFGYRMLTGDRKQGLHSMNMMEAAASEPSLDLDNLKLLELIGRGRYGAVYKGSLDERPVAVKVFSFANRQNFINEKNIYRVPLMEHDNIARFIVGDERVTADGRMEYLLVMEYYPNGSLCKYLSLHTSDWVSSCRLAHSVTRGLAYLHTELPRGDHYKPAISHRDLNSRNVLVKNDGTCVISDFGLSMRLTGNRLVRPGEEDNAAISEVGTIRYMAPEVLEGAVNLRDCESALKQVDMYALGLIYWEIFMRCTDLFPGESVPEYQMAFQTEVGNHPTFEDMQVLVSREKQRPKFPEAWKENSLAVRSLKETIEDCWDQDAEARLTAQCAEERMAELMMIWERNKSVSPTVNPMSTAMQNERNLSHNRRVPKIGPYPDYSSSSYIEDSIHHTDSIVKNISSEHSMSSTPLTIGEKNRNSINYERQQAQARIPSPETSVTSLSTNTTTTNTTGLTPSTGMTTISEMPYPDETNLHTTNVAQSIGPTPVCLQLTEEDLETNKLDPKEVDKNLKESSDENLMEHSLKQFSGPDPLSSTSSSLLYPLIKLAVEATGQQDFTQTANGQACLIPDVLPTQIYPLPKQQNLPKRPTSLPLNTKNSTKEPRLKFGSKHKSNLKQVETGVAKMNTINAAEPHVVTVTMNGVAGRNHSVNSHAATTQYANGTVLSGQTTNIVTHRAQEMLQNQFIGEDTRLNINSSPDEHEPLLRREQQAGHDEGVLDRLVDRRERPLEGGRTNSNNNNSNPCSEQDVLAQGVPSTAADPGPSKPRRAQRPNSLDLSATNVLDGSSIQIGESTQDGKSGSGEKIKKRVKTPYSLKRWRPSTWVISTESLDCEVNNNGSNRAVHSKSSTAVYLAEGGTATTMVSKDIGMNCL

[2] = target: JNK2 (Homo sapiens, UniProt P45984)
[3] = target: JNK3 (Homo sapiens, UniProt P53779)
[4] = target: T2, PHKG2 (Homo sapiens, UniProt P15735)
T2 sequence (P15735 1-406): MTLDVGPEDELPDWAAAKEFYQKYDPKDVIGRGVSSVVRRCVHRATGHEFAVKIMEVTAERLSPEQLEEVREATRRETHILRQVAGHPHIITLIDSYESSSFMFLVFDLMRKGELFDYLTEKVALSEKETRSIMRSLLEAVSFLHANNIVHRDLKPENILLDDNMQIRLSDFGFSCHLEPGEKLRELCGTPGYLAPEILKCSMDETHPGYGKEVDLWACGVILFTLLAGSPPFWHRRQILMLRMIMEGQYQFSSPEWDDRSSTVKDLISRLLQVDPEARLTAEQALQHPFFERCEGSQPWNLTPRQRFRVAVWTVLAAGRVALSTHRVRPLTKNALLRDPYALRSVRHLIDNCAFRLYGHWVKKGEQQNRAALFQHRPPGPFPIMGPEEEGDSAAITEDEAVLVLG

[5] = target: SRC (Homo sapiens, UniProt P12931)
[6] = target: T3, FECH (Homo sapiens, UniProt P22830)
T3 sequence (P22830 1-423): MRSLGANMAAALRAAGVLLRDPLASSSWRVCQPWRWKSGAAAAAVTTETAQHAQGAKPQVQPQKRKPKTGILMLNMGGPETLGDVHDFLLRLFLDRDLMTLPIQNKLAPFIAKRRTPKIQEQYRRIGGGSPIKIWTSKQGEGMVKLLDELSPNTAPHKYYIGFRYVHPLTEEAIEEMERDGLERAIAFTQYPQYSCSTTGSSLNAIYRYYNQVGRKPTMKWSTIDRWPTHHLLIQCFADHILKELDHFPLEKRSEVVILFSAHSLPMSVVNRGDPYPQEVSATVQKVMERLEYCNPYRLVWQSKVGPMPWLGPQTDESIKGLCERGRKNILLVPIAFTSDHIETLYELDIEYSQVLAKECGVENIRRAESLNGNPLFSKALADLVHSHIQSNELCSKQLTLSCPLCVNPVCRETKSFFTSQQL

Sequence of SRC (P12931 whole entry): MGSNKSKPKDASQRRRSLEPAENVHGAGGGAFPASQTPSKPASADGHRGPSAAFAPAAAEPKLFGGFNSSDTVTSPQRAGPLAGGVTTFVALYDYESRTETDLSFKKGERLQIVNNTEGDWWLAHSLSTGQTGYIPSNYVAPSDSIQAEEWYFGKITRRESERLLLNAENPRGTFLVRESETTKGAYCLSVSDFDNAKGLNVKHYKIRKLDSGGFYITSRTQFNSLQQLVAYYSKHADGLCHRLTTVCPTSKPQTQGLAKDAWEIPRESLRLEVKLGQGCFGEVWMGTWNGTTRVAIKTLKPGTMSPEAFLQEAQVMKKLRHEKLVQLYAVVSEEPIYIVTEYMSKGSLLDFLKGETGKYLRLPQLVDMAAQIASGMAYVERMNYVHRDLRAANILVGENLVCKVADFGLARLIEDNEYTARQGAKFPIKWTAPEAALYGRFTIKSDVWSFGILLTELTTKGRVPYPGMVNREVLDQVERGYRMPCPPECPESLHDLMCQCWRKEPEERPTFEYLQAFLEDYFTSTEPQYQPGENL
Sequence of JNK3 (P53779 whole entry): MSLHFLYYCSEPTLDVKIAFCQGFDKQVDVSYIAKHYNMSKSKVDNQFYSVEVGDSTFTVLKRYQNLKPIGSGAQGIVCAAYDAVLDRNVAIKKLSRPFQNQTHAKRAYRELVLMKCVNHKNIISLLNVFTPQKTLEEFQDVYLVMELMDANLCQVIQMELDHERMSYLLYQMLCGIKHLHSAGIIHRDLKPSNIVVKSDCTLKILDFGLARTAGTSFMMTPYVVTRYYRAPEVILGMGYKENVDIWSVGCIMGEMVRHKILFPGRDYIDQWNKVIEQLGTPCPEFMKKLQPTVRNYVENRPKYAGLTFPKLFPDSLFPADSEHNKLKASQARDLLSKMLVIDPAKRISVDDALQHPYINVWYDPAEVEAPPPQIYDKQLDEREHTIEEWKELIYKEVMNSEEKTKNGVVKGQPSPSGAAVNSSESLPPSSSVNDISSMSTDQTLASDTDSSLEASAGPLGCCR
Sequence of JNK2 (P45984 whole entry): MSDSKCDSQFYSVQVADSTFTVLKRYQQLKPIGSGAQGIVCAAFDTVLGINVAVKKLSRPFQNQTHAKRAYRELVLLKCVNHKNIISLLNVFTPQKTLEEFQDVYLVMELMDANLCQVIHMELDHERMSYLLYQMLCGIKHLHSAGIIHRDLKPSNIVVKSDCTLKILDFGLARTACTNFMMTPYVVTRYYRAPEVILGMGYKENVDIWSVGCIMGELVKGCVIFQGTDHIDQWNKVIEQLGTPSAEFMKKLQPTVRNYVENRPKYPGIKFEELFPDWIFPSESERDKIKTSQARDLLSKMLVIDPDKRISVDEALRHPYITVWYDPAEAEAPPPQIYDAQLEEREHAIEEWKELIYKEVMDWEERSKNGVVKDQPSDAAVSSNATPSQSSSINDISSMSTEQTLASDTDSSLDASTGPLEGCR

Q: How did the “dTm G-5555 (2)” value ([1]; 10 µM, binder) turn out when CNc1ncc2cc(-c3ccc(-c4cccc(C)n4)cc3Cl)c(=O)n(CC3OCC(N)CO3)c2n1 (stereo not shown) [compound 2, G-5555] was run?
A: -0.4 °C

Q: And the “dTm G-5555 (2)” value ([2]; 10 µM, binder)?
A: 0.6 °C

Q: What about the “dTm G-5555 (2)” value ([3]; 10 µM, binder) of the same compound?
A: 1.8 °C

Q: And the “dTm G-5555 (2)” value ([4]; 10 µM, binder)?
A: 0.6 °C

Q: What about the “dTm G-5555 (2)” value ([5]; 10 µM, binder) of the same compound?
A: -0.2 °C

Q: How did the ΔTm at 10 µM ([1]; read-out: dTm MR21 (4)) turn out when CNc1ncc2cc(-c3ccccc3Cl)c(=O)n(CCCCN)c2n1 [compound 4, 8-(4-Aminobutyl)-6-(2-chlorophenyl)-2-(methylamino)pyrido[2,3-d]pyrimidin-7(8H)-one] was run?
A: 1.6 °C

Q: What about the ΔTm at 10 µM ([6]; read-out: dTm MR21 (4)) of the same compound?
A: -1.1 °C

Q: And the ΔTm at 10 µM ([2]; read-out: dTm MR21 (4))?
A: -0.1 °C

Q: What about the ΔTm at 10 µM ([3]; read-out: dTm MR21 (4)) of the same compound?
A: 2.7 °C

Q: What about the ΔTm at 10 µM ([4]; read-out: dTm MR21 (4)) of the same compound?
A: 0.3 °C

Q: And the ΔTm at 10 µM ([5]; read-out: dTm MR21 (4))?
A: 2.6 °C

Q: What does the source list for CNc1ncc2cc(-c3cc(F)ccc3F)c(=O)n(CCCCN)c2n1 [compound 5, 8-(4-Aminobutyl)-6-(2,5-difluorophenyl)-2-(methylamino)pyrido[2,3-d]pyrimidin-7(8H)-one]?
A: ΔTm at 10 µM ([1]; read-out: dTm MR22 (5)): 0.3 °C; ΔTm at 10 µM ([6]; read-out: dTm MR22 (5)): 0.3 °C; ΔTm at 10 µM ([2]; read-out: dTm MR22 (5)): 0.2 °C; ΔTm at 10 µM ([4]; read-out: dTm MR22 (5)): 1.4 °C; ΔTm at 10 µM ([5]; read-out: dTm MR22 (5)): 0.7 °C

Q: Which results are given for CNc1ncc2cc(-c3cc(Br)ccc3Cl)c(=O)n(CCCCN)c2n1 [compound 6, 8-(4-Aminobutyl)-6-(5-bromo-2-chlorophenyl)-2-(methylamino)pyrido[2,3-d]pyrimidin-7(8H)-one]?
A: ΔTm at 10 µM ([1]; read-out: dTm 6): -0.3 °C; ΔTm at 10 µM ([6]; read-out: dTm 6): 0.2 °C; ΔTm at 10 µM ([2]; read-out: dTm 6): -0.4 °C; ΔTm at 10 µM ([3]; read-out: dTm 6): 1.1 °C; ΔTm at 10 µM ([4]; read-out: dTm 6): 0.8 °C; ΔTm at 10 µM ([5]; read-out: dTm 6): 0.2 °C

Q: Which ΔTm at 10 µM ([1]; read-out: dTm 7) does the source give for CNc1ncc2cc(-c3cc(Br)ccc3Cl)c(=O)n(C[C@H]3OC[C@H](N)CO3)c2n1 [compound 7, 8-(((2r,5r)-5-Amino-1,3-dioxan-2-yl)methyl)-6-(5-bromo-2-chlorophenyl)-2-(methylamino)pyrido[2,3-d]pyrimidin-7(8H)-one] here?
A: 0 °C

Q: And the ΔTm at 10 µM ([6]; read-out: dTm 7)?
A: -1.1 °C

Q: And the ΔTm at 10 µM ([2]; read-out: dTm 7)?
A: 1.1 °C

Q: What about the ΔTm at 10 µM ([3]; read-out: dTm 7) of the same compound?
A: 0.5 °C

Q: And the ΔTm at 10 µM ([4]; read-out: dTm 7)?
A: 0.3 °C

Q: And the ΔTm at 10 µM ([5]; read-out: dTm 7)?
A: 0.1 °C
